Where two headings read alike, the source gives them in different places.
How the values were obtained:
[1] = test system: human plasma; type: in vitro ADME
Procedure: (§1) Formula 1 was stable in both mouse and human plasma, with t90 values greater than 4 h, whereas it was unstable in rat plasma, with a t90 of less than 1 h (t90 should be greater than 4 h in order to be considered stable). Most of the efficacy and safety pharmacology was therefore run in mice.

[2] = test system: mouse plasma; type: in vitro ADME
Procedure: as §1

[3] = type: in vitro ADME; conditions: rat plasma
Procedure: as §1

[4] = in vivo
Text: Formula 1 was discovered following a comprehensive Senerga® Phenotypic screening.

[5] = target: CYP3A4 (Homo sapiens, UniProt P08684); experiment: Reversible CYP450 inhibition, cocktail format; type: biochemical; conditions: preliminary
Sequence of CYP3A4 (P08684 whole entry): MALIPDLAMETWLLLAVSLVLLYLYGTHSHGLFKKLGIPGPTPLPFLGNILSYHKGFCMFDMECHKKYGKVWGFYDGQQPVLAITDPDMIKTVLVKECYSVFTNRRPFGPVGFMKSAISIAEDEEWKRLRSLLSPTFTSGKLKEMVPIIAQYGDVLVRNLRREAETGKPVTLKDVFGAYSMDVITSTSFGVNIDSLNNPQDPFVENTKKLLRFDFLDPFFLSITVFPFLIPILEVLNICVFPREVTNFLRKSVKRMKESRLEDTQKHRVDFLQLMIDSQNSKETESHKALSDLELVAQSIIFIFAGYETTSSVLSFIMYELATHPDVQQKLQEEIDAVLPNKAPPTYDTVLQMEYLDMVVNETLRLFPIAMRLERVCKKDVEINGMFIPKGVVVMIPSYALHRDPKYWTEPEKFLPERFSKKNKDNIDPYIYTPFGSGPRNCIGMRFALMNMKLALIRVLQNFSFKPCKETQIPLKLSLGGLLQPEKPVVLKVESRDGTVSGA
Procedure: (§2) Preliminary in vitro studies on reversible inhibition of major CYP450 enzymes were conducted in a cocktail format for this compound. The IC50 values were 4 μM for CYP2C9, 5 μM for CYP2C19, and greater than 10 μM for CYP3A4, 2C8, 2D6, and 1A2. If total plasma concentrations in humans are less than 0.4 μM, then in vivo drug interaction studies in clinical trials may not be required for this compound.

[6] = target: T1, CYP2C8 (Homo sapiens, UniProt P10632); experiment: Reversible CYP450 inhibition, cocktail format; type: biochemical; conditions: 2C8, reversible inhibition, preliminary
T1 sequence (P10632 1-490): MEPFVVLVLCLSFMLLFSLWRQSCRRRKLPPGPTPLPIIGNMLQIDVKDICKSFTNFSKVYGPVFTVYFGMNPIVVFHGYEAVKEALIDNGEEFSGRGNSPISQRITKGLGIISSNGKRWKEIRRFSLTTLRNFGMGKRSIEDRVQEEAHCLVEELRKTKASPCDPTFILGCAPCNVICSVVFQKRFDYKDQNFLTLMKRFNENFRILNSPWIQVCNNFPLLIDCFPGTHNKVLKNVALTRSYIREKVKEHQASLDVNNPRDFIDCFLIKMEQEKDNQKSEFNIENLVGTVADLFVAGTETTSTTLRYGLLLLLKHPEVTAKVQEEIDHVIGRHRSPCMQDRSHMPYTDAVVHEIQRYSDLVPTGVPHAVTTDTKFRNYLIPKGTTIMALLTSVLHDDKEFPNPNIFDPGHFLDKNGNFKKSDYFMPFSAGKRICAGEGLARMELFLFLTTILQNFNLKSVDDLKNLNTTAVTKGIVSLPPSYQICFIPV
Procedure: as §2

[7] = target: T2, CYP1A2 (Homo sapiens, UniProt P05177); experiment: Reversible CYP450 inhibition, cocktail format; type: biochemical; conditions: 1A2, reversible inhibition, preliminary
T2 sequence (P05177 1-516): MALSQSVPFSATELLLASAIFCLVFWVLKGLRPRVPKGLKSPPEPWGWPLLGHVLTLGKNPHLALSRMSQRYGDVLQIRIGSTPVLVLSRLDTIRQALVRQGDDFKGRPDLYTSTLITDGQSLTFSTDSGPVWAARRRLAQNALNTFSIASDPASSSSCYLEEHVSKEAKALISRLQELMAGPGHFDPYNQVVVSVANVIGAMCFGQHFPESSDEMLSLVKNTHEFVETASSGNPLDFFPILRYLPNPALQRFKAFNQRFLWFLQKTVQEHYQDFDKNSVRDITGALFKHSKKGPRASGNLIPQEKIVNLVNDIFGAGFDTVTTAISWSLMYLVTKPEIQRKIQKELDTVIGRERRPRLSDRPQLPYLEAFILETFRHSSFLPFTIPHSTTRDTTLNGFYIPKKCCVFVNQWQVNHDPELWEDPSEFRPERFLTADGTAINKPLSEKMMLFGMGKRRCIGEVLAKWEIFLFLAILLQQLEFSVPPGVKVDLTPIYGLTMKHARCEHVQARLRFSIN
Procedure: as §2

[8] = target: CYP2D6 (Homo sapiens, UniProt P10635); experiment: Reversible CYP450 inhibition, cocktail format; type: biochemical; conditions: 2D6, reversible inhibition, preliminary
Sequence of CYP2D6 (P10635 whole entry): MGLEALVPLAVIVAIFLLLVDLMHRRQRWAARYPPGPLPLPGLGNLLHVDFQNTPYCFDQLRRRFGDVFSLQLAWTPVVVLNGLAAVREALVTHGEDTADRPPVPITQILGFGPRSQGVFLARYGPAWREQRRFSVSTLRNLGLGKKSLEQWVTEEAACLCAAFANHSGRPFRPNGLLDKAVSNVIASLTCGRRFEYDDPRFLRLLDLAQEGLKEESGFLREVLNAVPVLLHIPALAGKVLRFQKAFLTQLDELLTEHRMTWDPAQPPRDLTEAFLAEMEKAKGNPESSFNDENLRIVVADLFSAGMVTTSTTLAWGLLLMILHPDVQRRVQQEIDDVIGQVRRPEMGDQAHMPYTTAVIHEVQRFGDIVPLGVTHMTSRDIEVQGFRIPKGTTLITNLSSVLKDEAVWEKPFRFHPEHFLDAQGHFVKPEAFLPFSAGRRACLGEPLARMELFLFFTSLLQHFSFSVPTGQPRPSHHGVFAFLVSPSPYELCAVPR
Procedure: as §2

[9] = target: CYP2C19 (Homo sapiens, UniProt P33261); experiment: Reversible CYP450 inhibition, cocktail format; type: biochemical; conditions: preliminary
Sequence of CYP2C19 (P33261 whole entry): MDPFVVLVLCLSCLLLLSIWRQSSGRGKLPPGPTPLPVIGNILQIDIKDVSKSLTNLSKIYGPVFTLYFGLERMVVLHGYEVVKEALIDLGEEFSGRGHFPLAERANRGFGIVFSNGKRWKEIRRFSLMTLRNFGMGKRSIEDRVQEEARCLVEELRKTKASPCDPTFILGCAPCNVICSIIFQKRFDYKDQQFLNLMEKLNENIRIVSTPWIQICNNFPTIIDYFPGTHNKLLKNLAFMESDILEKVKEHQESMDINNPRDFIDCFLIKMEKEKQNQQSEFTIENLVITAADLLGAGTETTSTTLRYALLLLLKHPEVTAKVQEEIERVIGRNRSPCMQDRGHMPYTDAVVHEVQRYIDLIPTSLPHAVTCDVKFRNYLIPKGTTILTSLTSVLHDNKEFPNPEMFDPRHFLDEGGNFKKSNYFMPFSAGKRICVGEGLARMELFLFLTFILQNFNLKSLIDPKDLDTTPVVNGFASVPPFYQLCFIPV
Procedure: as §2

[10] = target: CYP2C9 (Homo sapiens, UniProt P11712); experiment: Reversible CYP450 inhibition, cocktail format; type: biochemical; conditions: preliminary
Sequence of CYP2C9 (P11712 whole entry): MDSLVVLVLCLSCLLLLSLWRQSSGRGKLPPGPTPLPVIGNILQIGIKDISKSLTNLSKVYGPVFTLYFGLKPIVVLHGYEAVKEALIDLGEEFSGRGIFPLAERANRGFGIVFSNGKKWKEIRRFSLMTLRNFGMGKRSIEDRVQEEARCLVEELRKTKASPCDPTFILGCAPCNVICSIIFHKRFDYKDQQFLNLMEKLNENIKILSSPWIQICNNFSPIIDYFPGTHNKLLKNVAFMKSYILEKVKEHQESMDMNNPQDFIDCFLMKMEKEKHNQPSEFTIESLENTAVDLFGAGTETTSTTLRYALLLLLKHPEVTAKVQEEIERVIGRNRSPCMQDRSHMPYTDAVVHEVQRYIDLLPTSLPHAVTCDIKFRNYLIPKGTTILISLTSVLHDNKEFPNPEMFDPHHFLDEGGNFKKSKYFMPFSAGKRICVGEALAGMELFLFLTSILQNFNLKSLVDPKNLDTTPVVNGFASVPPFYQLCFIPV
Procedure: as §2

[11] = type: in vivo, mice
Procedure: At 4 days, vehicle-treated animals gained approximately 1% body weight, going from 25.24±0.74 g to 25.50±0.64 g. Formula 1 treated animals went from 25.28±1.04 g to 25.82±1.25 g.
Animals treated with Formula 1 at a dose of 10 mg/kg IP for a period of 31 days gained […] body weight (changing from 21.44±0.18 g to 25.49±0.46 g). Vehicle treated animals gained […] body weight (changing from 21.45±0.19 g to 23.97±0.62 g; p=0.07), therefore no significant changes were found.

Q: For `CC(C)(C)C(=O)O[C@@H]1[C@@H]2[C@H]3C[C@H](C[C@@H]1N3Cc1ccccn1)CN2C(=O)CC(F)(F)F` (relative stereo) [Formula 1, (2S*,3S*,3aS*,6R*,7aR*)-1-(pyridin-2-ylmethyl)-4-(3,3,3-trifluoropropanoyl)octahydro-1H-2,6-methanopyrrolo[3,2-b]pyridin-3-yl pivalate], which t90 [1] is on record?
A: The t90 was “greater than 4 h”.

Q: What about the t90 [2] of the same compound?
A: Its t90 is “greater than 4 h”.

Q: What about the t90 [3] of the same compound?
A: The t90 was “less than 1 h”.

Q: What about the “activity in pain-related models” value [4] of the same compound?
A: The value was “showed activity in pain-related models”.

Q: What about the “effect on blood pressure” value [4] of the same compound?
A: Its value is “no effect on blood pressure”.

Q: And the “effect on bodyweight or food consumption” value [4]?
A: Its value is “no effect on bodyweight or food consumption”.

Q: What about the “effect on specific CNS-related tests” value [4] of the same compound?
A: Its value is “no effect on specific CNS-related tests”.

Q: And the effect on swelling [4]?
A: The effect on swelling was “not effective on swelling”.

Q: What about the post-mortem finding [4] of the same compound?
A: Its post-mortem finding is “no post-mortem finding”.

Q: What about the “withdrawal threshold of naïve animals” value [4] of the same compound?
A: The value was “without affecting the withdrawal threshold of naïve animals”.

Q: What about the IC50 [5] of the same compound?
A: Its IC50 is greater than 10 µM.

Q: And the IC50 [6]?
A: Its IC50 is greater than 10 µM.

Q: And the IC50 [7]?
A: Its IC50 is greater than 10 µM.

Q: What about the IC50 [8] of the same compound?
A: The IC50 was greater than 10 µM.

Q: And the IC50 [9]?
A: The IC50 was 5 µM.

Q: And the IC50 [10]?
A: Its IC50 is 4 µM.

Q: What about the “body weight at end” value ([11]; 10 mg/kg IP for 31 days) of the same compound?
A: The value was 25.49 ± 0.46 g.

Q: And the “body weight at start” value ([11]; 10 mg/kg IP for 31 days)?
A: The value was 21.44 ± 0.18 g.

Q: What about the body weight gained ([11]; 10 mg/kg IP for 31 days) of the same compound?
A: The body weight gained was 15.64%.

Q: And the “body weight at 4 days” value ([11]; 4-day observation)?
A: The value was 25.82 ± 1.25 g.

Q: What about the “body weight at start” value ([11]; 4-day observation) of the same compound?
A: The value was 25.28 ± 1.04 g.

Q: And the “effect on body weight gain” value ([11]; naïve mice, dosing for 31 days)?
A: Its value is “did not affect body weight gain”.

— US10351566B2, “Therapeutic compounds for pain and synthesis thereof” (priority 2015, dated 2019)
